Values quoted from earlier work as cited in patent US20260102372A1, “NEW FORMULATIONS FOR MENTAL DISORDERS OR MENTAL ENHANCEMENT” (TACTOGEN INC, priority 2023, published 2026).

Key:
PTSD = settings: MDMA arm
[1] = pooled Phase 2 trials
[2] = not given; remark: listed apart in the source
[3] = biological target: cytochrome p450 isozyme 2D6 (CYP2D6) (Homo sapiens, UniProt P10635)
[4] = nonhuman animals

Chain of cytochrome p450 isozyme 2D6 (CYP2D6) (P10635 whole entry): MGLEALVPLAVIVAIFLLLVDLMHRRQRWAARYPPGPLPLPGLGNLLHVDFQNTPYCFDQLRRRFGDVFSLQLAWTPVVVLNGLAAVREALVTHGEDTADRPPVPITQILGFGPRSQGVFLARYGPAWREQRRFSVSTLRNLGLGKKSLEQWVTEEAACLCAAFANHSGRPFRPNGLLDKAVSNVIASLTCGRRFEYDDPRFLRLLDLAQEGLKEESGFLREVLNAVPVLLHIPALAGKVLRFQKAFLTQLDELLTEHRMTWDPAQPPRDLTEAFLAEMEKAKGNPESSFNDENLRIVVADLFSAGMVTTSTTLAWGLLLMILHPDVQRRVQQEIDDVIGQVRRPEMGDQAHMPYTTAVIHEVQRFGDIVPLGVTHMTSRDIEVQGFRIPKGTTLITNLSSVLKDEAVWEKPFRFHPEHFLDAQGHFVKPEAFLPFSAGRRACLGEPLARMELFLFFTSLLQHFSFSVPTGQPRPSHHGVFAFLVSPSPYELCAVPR

Question: For `CNC(C)Cc1ccc2c(c1)OCO2` (stereo not shown) [MDMA, [1-(2H-1,3-benzodioxol-5-yl)propan-2-yl](methyl)amine], which “participants with sufficient improvement that they were no longer diagnosable with PTSD” value (PTSD; first of two Phase 3 trials (Mitchell et al. 2021)) is on record?
Answer: one-third

Question: What about the participants improved (PTSD; first of two Phase 3 trials, MDMA-assisted therapy for PTSD (Mitchell et al. 2021)) of the same compound?
Answer: 88%

Question: And the “duration of acute psychological and emotional effects (average)” value (after 75 or 125 mg MDMA, standard deviation 1.3 hours (Vizeli & Liechti 2017))?
Answer: 4.2 hours

Question: And the “time by which acute emotional effects have largely resolved” value (after administration of MDMA)?
Answer: ≤ 8 h

Question: What about the “nausea occurred in participants” value ([1]; 29 of 72 participants (Mithoefer et al. 2019)) of the same compound?
Answer: 40.3%

Question: What about the “anxiety occurred in participants” value ([1]; 52 of 72 participants (Mithoefer et al. 2019)) of the same compound?
Answer: 72.2%

Question: What about the half-life in plasma [2] of the same compound?
Answer: seven to nine

Question: And the CYP2D6 interaction [3]?
Answer: both a substrate and inhibitor

Question: And the “markers of serotonergic functioning (brain serotonin, tryptophan hydroxylase, serotonin transporter density)” value [4]?
Answer: decreases

Question: What about the “measures of oxidative stress” value [4] of the same compound?
Answer: increases
